Legend:
Assay type in all cases: in vivo, Carpophilus truncatus
[1] = system: C. truncatus; test: Laboratory dual-choice cage bioassays of co-attractant solutions; settings: Experiment #2: solution lacking one component vs full commercial co-attractant (CL)
Procedure: Cage bioassays were developed for the rapid screening of beetle attraction to prototype co-attractant solutions. Adult beetles were separated in groups of hundred individuals (mixed sex) and starved for 48 h in (30 cm×30 cm×30 cm) mesh cages in Controlled Environment rooms (29° C., 60% RH, 16L:8D Photoperiod). Two plastic traps made from 30 mL plastic cups comprising four 5-mm holes equidistantly distributed along their circumference and a single hole in the lid were filled with 20 mL of freshly prepared test co-attractant solutions (FIG. 2) and placed inside the mesh cage approximately 15-20 cm apart. Beetles were allowed 48 h to choose between the two solutions. At the end of the experiments, traps were collected in plastic containers and beetles inside each treatment cups (alive or drowned) as well as non-selecting individuals were counted. Experiments were replicated a minimum of ten times for each prototype solution. An attraction index, used to determine the degree of attraction or deterrence of the test solution in comparison to the control, was calculated as follows: (n beetles in test solution)−(n beetles in control)/total n beetles. Attraction indices returned values ranging between −1 (extreme repellence) and +1 (extreme attraction); 0 corresponding to the absence of preference for either solutions. Deviation of the indices from zero was analysed using two tailed t-tests. Cage bioassays were used to test the attraction of C. truncatus to the commercial co-attractant (co-attractant vs water) and to screen the influence of individual constituents of the commercial Carpophilus co-attractant on C. truncatus attraction. The effect of different constituents was assessed by testing the co-attractant (control) against test co-attractant solutions in which one constituent was excluded.
In a first cage experiment (Experiment #1, table 4), the attraction of C. truncatus attraction to the commercial co-attractant (CL) was verified using water as a control treatment (FIG. 14).
In a second experiment (Experiment #2, table 4), the influence of individual components of the commercial co-attractant on C. truncatus was assessed by testing beetle's preferences between test co-attractant solutions in which a single compound was missing against the full formulation.

[2] = system: C. truncatus antennae; test: GC-EAD (gas chromatography coupled with electroantennography) screening of odour and pheromone septa extracts; settings: for EAD: compounds in solvent extracts of commercial pheromone septa, key not given, antennae responded to all but one
Procedure: Pheromone compounds and other biologically active compounds present in odour extracts were screened by Gas Chromatography coupled with electroantennography (GC-EAD). The same GC setup used for chemical analysis was used in conjunction with an electroantennograph (Ockenfels Syntech GmbH, Germany). An apolar column SLB-5 MS (30 m×0.32 mm×0.25 μm) used as analytical column was connected to a CFT splitter plate (Capillary Flow Technology, Agilent). A constant flow of helium (1 mL/min) used as carrier and make-up gas was maintained towards the mass spectrometer. […] The EAD restrictor was fitted in a 50 cm transfer line (Ockenfels Syntech GmbH, Germany) heated at 250° C. allowing only the last 2 mm segment of the restrictor to protrude inside a glass mixing tube (3.8 mm inner diameter) positioned above the insect preparation and in which a 29 cm/s stream of purified air was applied. The described setup allowed relatively well-synced signals between all three detectors. One-week-old beetles were anesthetized on ice and immobilised in a micropipette tip with a cotton plug, with the upper part of the abdomen exposed. A sharp glass electrode filled with an electrolyte (0.1 N KCl, 3% PVP) was inserted into the head of the beetle (reference) while a similar electrode was positioned on the disc-shaped distal end of the antenna using a micromanipulator (FIG. 1). The antennal signal was amplified and recorded using an IDAC-4 (Ockenfels Syntech, Germany). When a good contact was obtained (checked via a 1% isopentyl acetate “puff” stimulation), an aliquot of volatile extract was injected in the GC and the sensitivity or lack thereof to individual compounds was determined by the overlay of MS/FID and EAD signals. Beetle odour extracts as well as extracts from commercial synthetic Carpophilus pheromones were screened by coupled gas chromatography-electroantennographic detection (GC-EAD) to test for beetle sensitivity to the putative pheromone and those of other Carpophilus species (FIG. 9).

[3] = system: C. truncatus male and female adult beetles; test: Y-tube olfactometer bioassays with isolated pheromone fractions; settings: 20 μl isolated fraction vs hexane control, diet odour in both arms
Procedure: Beetle orientation to different test odours was tested in a Y-tube glass olfactometer (ID: 2 cm, 10 cm stem and 7.5 cm choice arm length, 70° angle between arms) placed on a thick white paper sheet. All the experiments were conducted in a Controlled Environment Room at 28° C. The olfactometer was placed at a 30° angle to take advantage of beetles' natural negative geotaxis. Both arms of the Y-tube were connected via glass connectors or PTFE tubing to air-tight glass chambers in which different odours were applied. Activated charcoal-filtered air was circulated through the glass chambers entraining test odours to the choice arms of the Y-tube at 400 mL/min. The olfactometer was illuminated from above by dimmable fluorescent light tubes (Fititron, Weiss Gallenkamp, UK) covered by a sheet of UV-permitting diffusing white screen paper (Rosco 216, Germany). Light intensity at both ends of the two choice arms was measured and adjusted to 990 lux using a digital lux meter. Beetles were released individually in the olfactometer's main stem and observed for 10 min. Individuals that crossed the middle of either test arms (4 cm inside the arm; empirically designated as a non-return point) were considered to have made a choice. […] Preferences for male or female odours were assessed in a similar way by testing the beetle's orientation when simultaneous exposed to male and female beetle-infested diet. […]

[4] = system: C. truncatus; test: Field trials in almond orchards, black funnel traps; settings: field trial #3a; simplified co-attractant; FIG. 19
Procedure: All field trials were conducted in commercial almond orchards located in Mildura area (Victoria, Australia) between 2018 and 2020. Treatments were tested in black funnel traps (supplied by Bugs for Bugs; https://bugsforbugs.com.au/product/Carpophilus-[…]/) placed at ground level and secured using metal fence […] deeply anchored in the soil (FIG. 3). This differs from the conventional use of these traps in stone fruits where traps are suspended on […] 1.5 m height and derives from pilot experiments showing that more C. truncatus are caught when traps are placed on the ground (FIG. 5). An insecticidal strip (dichlorovos) was placed inside the traps to kill captured beetles. […] Beetles responses to different odours in Y-tube olfactometer experiments were analysed using binomial tests, assuming a distribution ratio of 1:1 between the two choice arms as the null-hypothesis. […] The deviation from zero of the attraction indices calculated in cage bioassays was analysed using paired t-tests. Field trial data were analysed as the mean weekly catches per trap over the period of the trials (between 2-6 weeks depending on beetle population density) using generalized linear mixed model fitted with a negative binomial distribution. […]

**Q.** How did the “effect of individual component of commercial co-attractant on C. truncatus” value (from here on “effect”) [1] turn out when CCC(C)CO (stereo not shown) [2-methylbutanol] was run?
**A.** Its value is “deterrent effect”.

**Q.** With C/C=C(C)/C=C(/C=C/CC)CC [(2E,4E,6E)-5-ethyl-3-methyl-2,4,6-nonatriene] as the compound, how does the EAD [2] read?
**A.** Its EAD is “✓”.

**Q.** With C/C=C/C(C)=C/C(C)=C/C(C)=C/C [(2E,4E,6E,8E)-3,5,7-Trimethyl-2,4,6,8-decatetraene] as the compound, how does the EAD [2] read?
**A.** Its EAD is “✓”.

**Q.** Which EAD [2] does the source give for C/C=C(C)/C=C(C)/C=C(/C=C/CC)CC [(2E,4E,6E,8E)-7-ethyl-3,5-dimethyl-2,4,6,8-undecatetraene] here?
**A.** The EAD was “✓”.

**Q.** CC/C=C/C(=C/C(C)=C/CC)CC [(3E,5E,7E)-6-ethyl-4-methyl-3,5,7-decatriene] was tested. Which EAD [2] did it give?
**A.** The EAD was “✓”.

**Q.** How did the EAD [2] turn out when C/C=C/C(=C/C(C)=C/C(C)=C/C)CC [Pheromone 1, (2E,4E,6E,8E)-7-Ethyl-3,5-dimethyl-2,4,6,8-decatetraene] was run?
**A.** The EAD was “✓”.

**Q.** What about the “attraction in Y-tube olfactometer” value [3] of the same compound?
**A.** Its value is “more attractive than pheromone 2”.

**Q.** For C/C=C(C)/C=C(C)/C=C(C)/C=C/CC [Pheromone 2, (2E,4E,6E,8E)-3,5,7-trimethyl-2,4,6,8-undecatetraene], which “GC-EAD responses of C. truncatus males and females” value ([2]; beetle odour extracts) is on record?
**A.** Its value is “strong and consistent GC-EAD responses”.

**Q.** And the EAD [2]?
**A.** Its EAD is “✓”.

**Q.** What about the “attraction in Y-tube olfactometer” value [3] of the same compound?
**A.** Its value is “comparable level of attraction”.

**Q.** Which “effect” value [1] does the source give for CC=O [acetaldehyde] here?
**A.** The value was “deterrent effect”.

**Q.** For CCO [ethanol], which “effect” value [1] is on record?
**A.** Its value is “main attractants”.

**Q.** With CCOC(C)=O [ethyl acetate] as the compound, how does the “effect” value [1] read?
**A.** The value was “deterrent effect”.

**Q.** With CC(C)CO [isobutyl alcohol] as the compound, how does the “effect” value [1] read?
**A.** Its value is “no observable effect”.

**Q.** Which results are given for CC(C)CCO [isopentyl alcohol]?
**A.** effect of individual component of commercial co-attractant on C. truncatus [1]: main attractants; C. truncatus attraction at higher concentrations of isopentyl alcohol [4]: significantly increase

From patent US20240292835A1, “Methods, Compositions and Devices for Insect Control” (Agriculture Victoria Services PTY LTD, priority 2020, published 2024)
